Data reported in the supplement of paper PMC13380429.

Key:
Conditions in all cases: 72 h
HepG2 [1] = assay: relative viability EC50 (midpoint between 100% and the lowest measured viability); higher = less toxic
Caco-2 [2] = assay: as above
Calu-3 [3] = assay: as above
HepG2 [4] = assay: cell viability relative to DMSO; higher = less toxic
Caco-2 [5] = assay: as above
Calu-3 [6] = assay: as above
HepG2 [7] = assay: drug sensitivity score (DSS) for viability; higher = more toxic; extreme values may be limits of the assay
Caco-2 [8] = assay: as above
Calu-3 [9] = assay: as above
U2OS [10] = assay: relative viability EC50 (midpoint between 100% and the lowest measured viability); higher = less toxic
U2OS [11] = assay: cell viability relative to DMSO; higher = less toxic
Vero E6 [12] = assay: as above
U2OS [13] = assay: drug sensitivity score (DSS) for viability; higher = more toxic; extreme values may be limits of the assay
Vero E6 [14] = assay: as above
Vero E6 [15] = assay: relative viability EC50 (midpoint between 100% and the lowest measured viability); higher = less toxic

| SMILES | relative viability EC50 (HepG2 [1]) [µM] | relative viability EC50 (Caco-2 [2]) [µM] | relative viability EC50 (Calu-3 [3]) [µM] | cell viability (HepG2 [4]; 1 nM) [%] | cell viability (HepG2 [4]; 10 nM) [%] | cell viability (HepG2 [4]; 100 nM) [%] | cell viability (HepG2 [4]; 1000 nM) [%] | cell viability (HepG2 [4]; 10000 nM) [%] | cell viability (Caco-2 [5]; 1 nM) [%] | cell viability (Caco-2 [5]; 10 nM) [%] | cell viability (Caco-2 [5]; 100 nM) [%] | cell viability (Caco-2 [5]; 1000 nM) [%] | cell viability (Caco-2 [5]; 10000 nM) [%] | cell viability (Calu-3 [6]; 1 nM) [%] | cell viability (Calu-3 [6]; 10 nM) [%] | cell viability (Calu-3 [6]; 100 nM) [%] | cell viability (Calu-3 [6]; 1000 nM) [%] | cell viability (Calu-3 [6]; 10000 nM) [%] | drug sensitivity score (HepG2 [7]) | drug sensitivity score (Caco-2 [8]) | drug sensitivity score (Calu-3 [9]) | relative viability EC50 (U2OS [10]) [µM] | cell viability (U2OS [11]; 1 nM) [%] | cell viability (U2OS [11]; 10 nM) [%] | cell viability (U2OS [11]; 100 nM) [%] | cell viability (U2OS [11]; 1000 nM) [%] | cell viability (U2OS [11]; 10000 nM) [%] | cell viability (Vero E6 [12]; 1 nM) [%] | cell viability (Vero E6 [12]; 10 nM) [%] | cell viability (Vero E6 [12]; 100 nM) [%] | cell viability (Vero E6 [12]; 1000 nM) [%] | cell viability (Vero E6 [12]; 10000 nM) [%] | drug sensitivity score (U2OS [13]) | drug sensitivity score (Vero E6 [14]) | relative viability EC50 (Vero E6 [15]) [µM] |
| --- | --- | --- | --- | --- | --- | --- | --- | --- | --- | --- | --- | --- | --- | --- | --- | --- | --- | --- | --- | --- | --- | --- | --- | --- | --- | --- | --- | --- | --- | --- | --- | --- | --- | --- | --- |
| CN1C[C@@H]2CN(c3ccc(-c4ccccc4)nn3)C[C@@H]2C1 | > 10 | > 10 | > 10 | 104 | 97.3 | 110 | 98.9 | 96 | 105 | 104 | 101 | 103 | 99.5 | 90.3 | 100 | 97.6 | 98.6 | 91.6 | 0 | 0 | 0 |  |  |  |  |  |  |  |  |  |  |  |  |  |  |
| CNc1cc2c(Nc3cccc(Br)c3)ncnc2cn1 |  | 1.55 | 0.47 | 93.8 | 105 | 95.9 | 100 | 64.9 | 102 | 92.5 | 91.2 | 84.5 | 49.7 | 101 | 98.4 | 93.9 | 53.5 | 37.7 | 1.6 | 4.4 | 9.5 | > 10 | 99.4 | 97.6 | 98.3 | 92.2 | 89.6 | 92.4 | 97.3 | 88.4 | 72.4 | 53.1 | 0 | 6.2 |  |
| COc1ccc(-c2ccc3c(N4CCOCC4)nc(N4C[C@@H](C)O[C@@H](C)C4)nc3n2)cc1CO |  |  |  |  |  |  |  |  |  |  |  |  |  |  |  |  |  |  | 7.2 |  | 10.1 |  |  |  |  |  |  |  |  |  |  |  | 5.1 | 4.6 |  |
| NCCc1ccccn1 [2-pyridylethylamine] | > 10 | > 10 | > 10 | 113 | 104 | 113 | 113 | 93.6 | 110 | 96.4 | 107 | 101 | 108 | 98.8 | 88.4 | 93.4 | 105 | 101 | 0 | 0 | 0 |  |  |  |  |  |  | 95.2 | 105 | 105 | 102 | 96.6 |  | 0 | > 10 |
| c1ccc(N2CCN(Cc3nc4ccccc4[nH]3)CC2)nc1 [ABT-724] | > 10 | > 10 | > 10 | 92.4 | 100 | 99.2 | 95.7 | 106 | 91.7 | 99.8 | 97.8 | 100 | 94 | 93.5 | 105 | 101 | 104 | 114 | 0 | 0 | 0 | > 10 | 98.8 | 103 | 98.7 | 104 | 98.6 |  |  |  |  |  | 0 |  |  |
| C1Cc2[nH]nc(-c3nn[nH]n3)c2C1 [MK-0354] | > 10 | > 10 | > 10 | 102 | 98 | 95.6 | 105 | 95.4 | 97 | 91.1 | 95.2 | 88.9 | 102 | 99.8 | 92.7 | 91.6 | 112 | 101 | 0 | 0 | 0 | > 10 | 101 | 96.2 | 103 | 96.7 | 103 |  |  |  |  |  | 0 |  |  |
| COc1cc(S(C)(=O)=O)ccc1Nc1nc2ccc(-c3ccc(NC(=O)[C@H](C)c4ccc(F)cc4)cc3)cn2n1 [Mps1-IN-5] | 0.508 | > 10 | > 10 | 106 | 108 | 106 | 56.2 | 49.2 | 97.7 | 96.4 | 103 | 78.2 | 87.4 | 101 | 94.6 | 94.6 | 101 | 91.8 | 7.9 | 2.9 | 0 |  | 99.9 | 99.6 | 94.2 | 66.7 | 70.6 | 101 | 97 | 95.2 | 66.4 | 71.5 | 6.7 | 6.6 |  |
| CC#CC(=O)N1CC[C@@H](n2c(=O)n(-c3ccc(Oc4ccccc4)cc3)c3c(N)ncnc32)C1 [ONO-4059] | > 10 |  | 0.121 | 96.7 | 99.3 | 89.6 | 102 | 101 | 97.6 | 87 | 93.9 | 73.8 | 73.7 | 91.2 | 96.7 | 73.6 | 36 | 41.3 | 0 | 4.4 | 14.8 | > 10 | 101 | 91.4 | 103 | 92.5 | 93.6 | 89.5 | 97.4 | 90.7 | 80.2 | 68.2 | 0 | 3.9 |  |
| Nc1cc(F)ccc1NC(=O)/C=C/c1cnn(C/C=C/c2ccccc2)c1 [RGFP966] |  | > 10 |  | 93.2 | 105 | 96.4 | 87.2 | 52.4 | 100 | 98.9 | 92.6 | 91.2 | 76.7 | 99.3 | 106 | 89.2 | 87.6 | 51.4 | 4.4 | 1.4 | 4.1 |  | 92.9 | 104 | 92.2 | 89.5 | 68.6 | 104 | 106 | 105 | 95.9 | 66.2 | 2.2 | 2.2 |  |
| CN[C@@H](C)C(=O)N[C@H]1CCCC[C@H]2CC[C@@H](C(=O)N[C@@H](c3ccccc3)c3cn(CCCCc4ccc(CCCCn5cc([C@@H](NC(=O)[C@@H]6CC[C@@H]7CCCC[C@H](NC(=O)[C@H](C)NC)C(=O)N76)c6ccccc6)nn5)cc4)nn3)N2C1=O [SM-164] | > 10 | > 10 | > 10 | 106 | 104 | 98.6 | 96.9 | 90.1 | 105 | 109 | 85.5 | 84 | 98.4 | 103 | 90 | 99 | 89.2 | 81.3 | 0 | 2.7 | 0.9 | > 10 | 99.5 | 108 | 102 | 98.8 | 99.7 |  |  |  |  |  | 0 |  |  |
| COc1cc2c(NC3CCN(CC4CCCCC4)CC3)nc(N3CCCN(C(C)C)CC3)nc2cc1OCCCN1CCCCC1 [UNC0631] | 2.89 | > 10 | 3.36 | 104 | 111 | 100 | 96.3 | 0.2 | 97.7 | 104 | 103 | 84.4 | 83.2 | 103 | 97.2 | 104 | 103 | 18.9 | 6.1 | 1.6 | 4.3 |  | 102 | 102 | 102 | 98.7 | 74.2 | 93.4 | 97.1 | 88.6 | 93 | 50.9 | 1.2 | 3.8 |  |
| Cc1ccc(-c2nc3ccc(C)cn3c2CC(=O)N(C)C)cc1 [ZOLPIDEM] | > 10 | > 10 | > 10 | 110 | 97.7 | 101 | 97.1 | 99.6 | 95.5 | 97 | 117 | 95.1 | 98.1 | 102 | 109 | 97 | 95.9 | 105 | 0 | 0 | 0 | > 10 | 101 | 104 | 101 | 100 | 96.2 |  |  |  |  |  | 0 |  |  |
| Cc1cccc(C)c1NC(=O)c1ccc(N)cc1 [ameltolide] | > 10 | > 10 | > 10 | 99.6 | 89.3 | 86.2 | 76 | 98.7 | 89.3 | 94.4 | 102 | 110 | 85.4 | 95.7 | 92.7 | 83 | 92.5 | 97.1 | 0 | 0.1 | 0 | > 10 | 97 | 103 | 94.6 | 99.2 | 94.2 |  |  |  |  |  | 0 |  |  |
| CCC(C)(CN(C)C)OC(=O)c1ccccc1 (configuration not stated) [amyleine] | > 10 | > 10 | > 10 | 106 | 103 | 109 | 98.1 | 88.7 | 115 | 88.1 | 97.3 | 101 | 92.7 | 106 | 95.6 | 101 | 102 | 114 | 0.1 | 0 | 0 |  |  |  |  |  |  | 108 | 99.8 | 99 | 104 | 100 |  | 0 | > 10 |
| COC(=O)[C@H](Cc1ccccc1)NC(=O)[C@@H](N)CC(=O)O [aspartame] | > 10 | > 10 | > 10 | 98.3 | 91.6 | 98.2 | 94.3 | 102 | 97.8 | 99.1 | 101 | 99.6 | 94 | 91.2 | 100 | 92.8 | 89.4 | 96.5 | 0 | 0 | 0 | > 10 | 99.8 | 99.7 | 98.6 | 103 | 101 |  |  |  |  |  | 0 |  |  |
| Cn1c(=O)c2c(ncn2C)n(C)c1=O [caffeine] |  |  |  |  |  |  |  |  |  |  |  |  |  |  |  |  |  |  | 0 |  | 0 |  |  |  |  |  |  |  |  |  |  |  | 0 | 0 |  |
| O=C(O)c1cc(=O)c2ccccc2o1 [chromocarb] | > 10 | > 10 | > 10 | 114 | 106 | 114 | 98.5 | 110 | 99.8 | 109 | 104 | 110 | 108 | 81.8 | 93.2 | 86.8 | 103 | 93.7 | 0 | 0 | 0 |  |  |  |  |  |  |  |  |  |  |  |  |  |  |
